According to patent publication US7998978B2 (Pfizer Inc., priority 2006, dated 2011):

Each molecule was assayed against T1, JNK1α1 (Homo sapiens, UniProt P45983) (assay: Coupled spectrophotometric (PK/LDH) JNK1α1 assay: % inhibition and Ki determination). Conditions: @1 uM; read-out: % Inhibition JNK-1.
T1 construct: catalytic domain containing amino acids 1-364 and N-terminal hexahistidine tag; hexahistidine (His6) (N); made in house; host or cells: E. coli BL21 (DE3)
Assay type: biochemical
Procedure, shortened: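 Initial rates were taken from the absorbance decrease at 340 nm at 30° C. Ki was fitted with a tight-binding model over 11 concentrations (top 100 μM); single-point inhibition was tested at 1 or 10 μM.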

T1 sequence (P45983 1-364): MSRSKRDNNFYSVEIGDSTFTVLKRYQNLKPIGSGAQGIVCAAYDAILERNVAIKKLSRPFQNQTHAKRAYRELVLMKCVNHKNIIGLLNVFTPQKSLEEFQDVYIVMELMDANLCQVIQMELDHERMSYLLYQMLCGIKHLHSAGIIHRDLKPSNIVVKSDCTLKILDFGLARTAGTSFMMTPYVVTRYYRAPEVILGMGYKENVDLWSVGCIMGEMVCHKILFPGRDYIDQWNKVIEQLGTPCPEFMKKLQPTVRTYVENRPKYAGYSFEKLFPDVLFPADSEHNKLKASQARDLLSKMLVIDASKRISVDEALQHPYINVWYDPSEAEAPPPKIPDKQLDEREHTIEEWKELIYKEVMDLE

| SMILES | inhibition at 1 µM [%] |
| --- | --- |
| COCCOc1ccc2cnc(N[C@H]3CC[C@H](O)CC3)nc2c1 [Example 272, trans-4-{[7-(2-methoxyethoxy)quinazolin-2-yl]amino)cyclohexanol] | 63 |
| O=C(NC[C@@H](O)c1ccccc1)c1cccc2cnc(N[C@H]3CC[C@H](O)CC3)nc12 [Example 474, 2-[(trans-4-hydroxycyclohexyl)amino]-N-[(2S)-2-hydroxy-2-phenylethyl]quinazoline-8-carboxamide] | 37 |
| O=C(NCCC1CCCCO1)c1cccc2cnc(N[C@H]3CC[C@H](O)CC3)nc12 (stereo partly drawn) [Example 515, 2-[(trans-4-hydroxycyclohexyl)amino]-N-[2-(tetrahydro-2H-pyran-2-yl)ethyl]quinazoline-8-carboxamide] | 19 |
| Cc1cccc(CC(C)NC(=O)c2cccc3cnc(N[C@H]4CC[C@H](O)CC4)nc23)n1 (stereo partly drawn) [Example 475, 2-[(trans-4-hydroxycyclohexyl)amino]-N-[1-methyl-2-(6-methylpyridin-2-yl)ethyl]quinazoline-8-carboxamide] | 11 |
| C[C@@H]([C@H](Oc1ccc2cnc(N[C@H]3CC[C@H](O)CC3)nc2c1)c1ccccc1)N(C)C [Example 296, trans-4-[(7-{[(1R,2S)-2-(dimethylamino)-1-phenylpropyl]oxy}quinazolin-2-yl)amino]cyclohexanol] | 14 |
| CC(NC(=O)c1cccc2cnc(N[C@H]3CC[C@H](O)CC3)nc12)c1ccncn1 (stereo partly drawn) [Example 492, 2-[(trans-4-hydroxycyclohexyl)amino]-N-(1-pyrimidin-4-ylethyl)quinazoline-8-carboxamide] | 12 |

Same assay, conditions: @10 uM; read-out: % Inhibition JNK-1

| SMILES | inhibition at 10 µM [%] |
| --- | --- |
| CC(C)c1noc(CNC(=O)c2cccc3cnc(N[C@H]4CC[C@H](O)CC4)nc23)n1 [Example 500, 2-[(trans-4-hydroxycyclohexyl)amino]-N-[(3-isopropyl-1,2,4-oxadiazol-5-yl)methyl]quinazoline-8-carboxamide] | 38 |
| O=C(NCc1noc(-c2ccccc2)n1)c1cccc2cnc(N[C@H]3CC[C@H](O)CC3)nc12 [Example 501, 2-[(trans-4-hydroxycyclohexyl)amino]-N-[(5-phenyl-1,2,4-oxadiazol-3-yl)methyl]quinazoline-8-carboxamide] | 60 |
| CC(C)(C)C(=O)N1CCC(NC(=O)c2cccc3cnc(N[C@H]4CC[C@H](O)CC4)nc23)C1 (stereo partly drawn) [Example 504, N-[1-(2,2-dimethylpropanoyl)pyrrolidin-3-yl]-2-[(trans-4-hydroxycyclohexyl)amino]quinazoline-8-carboxamide] | 40 |

Same assay, conditions: JNK-1

| SMILES | Ki [nM] |
| --- | --- |
| O=C(N[C@H](CO)CC1CCCCC1)c1ccc2cnc(NC3CCCC3)nc2c1 [Example 419, N-[(1S)-2-cyclohexyl-1-(hydroxymethyl)ethyl]-2-(cyclopentylamino)quinazoline-7-carboxamide] | 3030 |
| CC[C@@H](CO)NC(=O)c1ccc2cnc(NC3CCC3)nc2c1 [Example 416, 2-(cyclobutylamino)-N-[(1S)-1-(hydroxymethyl)propyl]quinazoline-7-carboxamide] | 1550 |
| Cc1cnc(C(=O)NCC(=O)Nc2cc3cc(-c4cn[nH]c4)ccc3cn2)cn1 [Example 43, 5-methyl-N-(2-oxo-2-{[6-(1H-pyrazol-4-yl)isoquinolin-3-yl]amino}ethyl)pyrazine-2-carboxamide] | 8 |
| CC(C)N[C@H]1CC[C@H](Nc2ncc3cccc(OC4CCOC4)c3n2)CC1 (stereo partly drawn) [Example 193, trans-N-isopropyl-N′-[8-(tetrahydrofuran-3-yloxy)quinazolin-2-yl]cyclohexane-1,4-diamine] | 1410 |
| Cc1nnc(CNC(=O)c2ccc3cnc(N[C@H]4CC[C@H](O)CC4)nc3c2)o1 [Example 355, 2-[(trans-4-hydroxycyclohexyl)amino]-N-[(5-methyl-1,3,4-oxadiazol-2-yl)methyl]quinazoline-7-carboxamide] | 1390 |
| O=C(N[C@@H]1COC[C@H]1O)c1ccc2cnc(N[C@H]3CC[C@H](O)CC3)nc2c1 [Example 404, 2-[(trans-4-hydroxycyclohexyl)amino]-N-[(3R,4S)-4-hydroxytetrahydrofuran-3-yl]quinazoline-7-carboxamide] | 667 |
| COc1ccc(CC(=O)Nc2cc3cc(-c4cnn(C)c4)ccc3cn2)cc1 [Example 4, 2-(4-methoxyphenyl)-N-[6-(1-methyl-1H-pyrazol-4-yl)isoquinolin-3-yl]acetamide] | 0.8 |
| Cc1ccc2cnc(N[C@H]3CC[C@H](O)CC3)nc2c1OCC(=O)N1CCS(=O)(=O)CC1 [Example 214, trans-4-({8-[2-(1,1-dioxidothiomorpholin-4-yl)-2-oxoethoxyl]-7-methylquinazolin-2-yl}amino) cyclohexanol] | 1300 |
| C[C@@H](NC(=O)c1ccc2cnc(N[C@H]3CC[C@H](O)CC3)nc2c1)c1ccccc1 [Example 87, 2-[(trans-4-hydroxycyclohexyl)amino]-N-[(1R)-1-phenylethyl]quinazoline-7-carboxamide] | 60 |
| O=C(NCCCO)c1cccc2cnc(N[C@H]3CC[C@H](O)CC3)nc12 [Example 451, 2-[(trans-4-hydroxycyclohexyl)amino]-N-(3-hydroxypropyl)quinazoline-8-carboxamide] | 166 |
| CC[C@H](C)[C@@H](CO)NC(=O)c1ccc2cnc(NC(C)C)nc2c1 [Example 409, N-[(1S,2S)-1-(hydroxymethyl)-2-methylbutyl]-2-(isopropylamino)quinazoline-7-carboxamide] | 772 |
| O=C(N[C@H](CO)CC1CCCCC1)c1ccc2cnc(NC3CCCCC3)nc2c1 [Example 393, 2-(cyclohexylamino)-N-[(1S)-2-cyclohexyl-1-(hydroxymethyl)ethyl]quinazoline-7-carboxamide] | 387 |
| O=C(Nc1nccc(O)n1)c1cccc2cnc(N[C@H]3CC[C@H](O)CC3)nc12 [Example 125, 2-[(trans-4-hydroxycyclohexyl)amino]-N-(4-hydroxypyrimidin-2-yl)quinazoline-8-carboxamide] | 520 |
| O=C(NC(CO)c1ccccc1Cl)c1ccc2cnc(N[C@H]3CC[C@H](O)CC3)nc2c1 (stereo partly drawn) [Example 99, N-[1-(2-chlorophenyl)-2-hydroxyethyl]-2-[(trans-4-hydroxycyclohexyl)amino]quinazoline-7-carboxamide] | 18 |
| O[C@H]1CC[C@H](Nc2ncc3cccc(OC4CCC4)c3n2)CC1 [Example 242, trans-4-{[8-(cyclobutyloxy)quinazolin-2-yl]amino}cyclohexanol] | 112 |
| O=C(N[C@@H]1Cc2ccccc2[C@H]1O)c1cccc2cnc(N[C@H]3CC[C@H](O)CC3)nc12 [Example 459, 2-[(trans-4-hydroxycyclohexyl)amino]-N-[(1R,2R)-1-hydroxy-2,3-dihydro-1H-inden-2-yl]quinazoline-8-carboxamide] | 399 |
| O=C(NC1CCOCC1)c1cccc2cnc(N[C@H]3CC[C@H](O)CC3)nc12 [Example 113, 2-[(trans-4-hydroxycyclohexyl)amino]-N-(tetrahydro-2H-pyran-4-yl)quinazoline-8-carboxamide] | 271 |
| CC[C@@H](CO)NC(=O)c1ccc2cnc(NC(C)C)nc2c1 [Example 411, N-[(1S)-1-(hydroxymethyl)propyl]-2-(isopropylamino)quinazoline-7-carboxamide] | 1100 |
| O[C@H]1CC[C@H](Nc2ncc3cccc(OC4CCC(F)(F)CC4)c3n2)CC1 [Example 239, trans-4-({8-[(4,4-difluorocyclohexyl)oxy]quinazolin-2-yl}amino)cyclohexanol] | 67 |
| Cn1cncc1CNC(=O)c1cccc2cnc(N[C@H]3CC[C@H](O)CC3)nc12 [Example 465, 2-[(trans-4-hydroxycyclohexyl)amino]-N-[(1-methyl-1H-imidazol-5-yl)methyl]quinazoline-8-carboxamide] | 782 |
| O=C(Cc1c(F)cccc1C(F)(F)F)Nc1cc2cc(-c3cn[nH]c3)ccc2cn1 [Example 33, N-[6-(1H-pyrazol-4-yl)isoquinolin-3-yl]-2-[2-(trifluoromethyl-6-fluoro)phenyl]acetamide] | 7 |
| Oc1cccc2cnc(N[C@H]3CC[C@H](O)CC3)nc12 [Example 152, 2-[(trans-4-hydroxycyclohexyl)amino]quinazolin-8-ol] | 420 |
| C[C@@H](CO)NC(=O)c1ccc2cnc(NC3CCCCC3)nc2c1 [Example 399, 2-(cyclohexylamino)-N-[(1S)-2-hydroxy-1-methylethyl]quinazoline-7-carboxamide] | 461 |
| O[C@H]1CC[C@H](Nc2ncc3cccc(O[C@@H]4CCOC4)c3n2)CC1 [Example 167, trans-4-({8-[(3R)-tetrahydrofuran-3-yloxy]quinazolin-2-yl}amino)cyclohexanol] | 644 |
| c1cnc2ccc(CNc3cc4cc(-c5cn[nH]c5)ccc4cn3)cc2c1 [Example 221, 6-(1H-pyrazol-4-yl)-N-(quinolin-6-ylmethyl)isoquinolin-3-amine] | 2220 |
| CN(C)CCOc1ccc2cnc(N[C@H]3CC[C@H](O)CC3)nc2c1 [Example 157, trans-4-({7-[2-(dimethylamino)ethoxy]quinazolin-2-yl}amino)cyclohexanol] | 1780 |
| O=C(CNC(=O)c1ccc(O)c(Cl)c1)Nc1cc2cc(-c3cn[nH]c3)ccc2cn1 [Example 56, 3-chloro-4-hydroxy-N-(2-oxo-2-{[6-(1H-pyrazol-4-yl)isoquinolin-3-yl]amino}ethyl)benzamide] | 17 |
| O[C@H]1CC[C@H](Nc2ncc3cccc(O[C@H]4CCCN(Cc5ccccn5)C4)c3n2)CC1 [Example 240, trans-4-[(8-{[1-(pyridin-2-ylmethyl)piperidin-3-yl]oxy}quinazolin-2-yl)amino]cyclohexanol] | 79 |
| O=C(N[C@H]1CC[C@H](CO)CC1)c1ccc2cnc(N[C@H]3CC[C@H](O)CC3)nc2c1 [Example 345, 2-[(trans-4-hydroxycyclohexyl)amino]-N-[trans-4-(hydroxymethyl)cyclohexyl]quinazoline-7-carboxamide] | 885 |
